Here are results for 41 compounds from ChEMBL document CHEMBL1221295 (Bioorg Med Chem, 2010).

Experiment [1] concerns the target T1, Melatonin receptor type 1A (Homo sapiens, UniProt P48039). The experiment in a line: Displacement of [125I]iodomelatonin from human cloned MT1 receptor expressed in […] NIH3T3 cells after 90 mins. It is filed as cell-based. On the technique in general: In a radioligand displacement assay an active substance lowers the binding of a labelled ligand.
In experiment [2] the target is T2, Melatonin receptor type 1B (Homo sapiens, UniProt P49286).
T2 sequence (P49286 whole entry): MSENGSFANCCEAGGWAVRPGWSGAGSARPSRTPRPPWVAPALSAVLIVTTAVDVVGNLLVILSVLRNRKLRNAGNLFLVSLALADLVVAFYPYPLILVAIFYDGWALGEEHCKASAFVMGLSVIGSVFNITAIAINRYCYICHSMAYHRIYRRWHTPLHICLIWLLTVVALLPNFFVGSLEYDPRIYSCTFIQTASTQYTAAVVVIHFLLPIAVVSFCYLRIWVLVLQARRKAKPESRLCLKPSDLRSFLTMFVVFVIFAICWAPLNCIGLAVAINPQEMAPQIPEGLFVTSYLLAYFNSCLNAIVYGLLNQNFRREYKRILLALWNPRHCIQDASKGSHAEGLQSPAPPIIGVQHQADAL
The experiment in a line: Displacement of [125I]iodomelatonin from human cloned MT2 receptor expressed in […] NIH3T3 cells after 90 mins. It is filed as cell-based.

Experiment [3] has as its target T1, Melatonin receptor type 1A. The experiment in a line: Intrinsic activity at human cloned MT1 receptor expressed in […] NIH3T3 cells assessed as increase of [35S]GTPgammaS binding relative to melatonin. It is filed as functional, cell-based. For orientation: Binding of GTPγS marks nucleotide exchange on a G protein.
Experiment [4] addresses T3, Melatonin receptor type 1B (Homo sapiens) (UniProt P49286).
T3 sequence (whole entry): T2 sequence (P49286 whole entry)
The experiment in a line: Intrinsic activity at human cloned MT2 receptor expressed in […] NIH3T3 cells assessed as increase of [35S]GTPgammaS binding relative to melatonin. It is filed as functional, cell-based.

pKi: −log10 of the molar value.

T1 sequence (P48039 whole entry): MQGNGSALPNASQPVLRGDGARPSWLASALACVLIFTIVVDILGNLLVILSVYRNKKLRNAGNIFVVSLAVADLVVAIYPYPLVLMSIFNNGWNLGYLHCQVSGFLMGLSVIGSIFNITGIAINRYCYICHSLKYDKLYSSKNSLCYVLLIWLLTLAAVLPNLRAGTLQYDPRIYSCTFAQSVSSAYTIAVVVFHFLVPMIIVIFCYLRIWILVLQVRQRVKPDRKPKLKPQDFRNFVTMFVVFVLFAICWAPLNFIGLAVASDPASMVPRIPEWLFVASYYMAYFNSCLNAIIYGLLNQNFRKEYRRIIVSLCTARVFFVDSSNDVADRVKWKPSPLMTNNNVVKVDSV

Usually pKi stands for the Ki on a negative log10 scale, so that one unit is a factor of ten. A high value points to a low Ki. For the compound `COc1ccccc1SCCNC(C)=O`, the pKi was 5.44 in experiment [1] and 6.30 in experiment [2]. Besides, the Ratio was 0.27 in experiment [3] and 0.56 in experiment [4].
Take `COc1cccc(SC(C)CNC(C)=O)c1` (stereo unspecified): the pKi is 6.96 in experiment [1] and 6.58 in experiment [2].
As for `CC(=O)N[C@@H](C)CSc1ccccc1`, the pKi in experiment [1] was 5.43; in experiment [2], 5.36. Moreover, the Ratio in experiment [3] is -0.07; in experiment [4], 0.25.
For `COc1cccc(O[C@@H](C)CNC(=O)C2CC2)c1`, in that order: 9.14, 8.36, 1.01 and 1.26.
In the case of `COc1cccc(S[C@H](C)CNC(C)=O)c1`, the negative logarithm of the Ki (pKi) in experiment [1] is 5.56; in experiment [2], 6.18.
Turning to `CC(=O)NC(C)CSc1ccccc1` (stereo unspecified), the negative logarithm of the Ki (pKi) in experiment [1] is 4.50; in experiment [2] it was 5.17. In addition, the Ratio came out at 0 in experiment [3] and 0.2 in experiment [4].
For `CC(=O)N[C@H](C)COc1ccccc1`, in that order: 4.20, 4.27, 0.17 and 0.11.
The like results for `COc1cccc(SC[C@H](C)NC(C)=O)c1` were, in that order, 6.32, 6.58, 0.3 and 0.5.
For `CC(=O)N[C@H](C)CSc1ccccc1`, in that order: 4.13, 4.19, -0.05 and -0.04.
In the case of `COc1cccc(O[C@H](C)CNC(C)=O)c1`, the pKi in experiment [1] is 7.31; in experiment [2] it was 6.96. The Ratio in experiment [3] is 0.79; in experiment [4] it was 0.93.
With `COc1cccc(OC[C@@H](C)NC(C)=O)c1`, the pKi is 4.44 in experiment [1] and 5.31 in experiment [2]. In addition, the Ratio in experiment [3] is 0.35; in experiment [4], 0.43.
For `COc1cccc(OC[C@H](C)NC(C)=O)c1`, in that order: 6.46, 6.52, 0.75 and 0.8.
The like results for `CCCC(=O)NCC(C)Oc1cccc(OC)c1` (stereo unspecified) were, in that order, 8.38, 8.43, 1.04 and 1.12.
For the compound `CCCC(=O)NC[C@H](C)Sc1cccc(OC)c1`, the negative-log Ki (pKi) in experiment [1] was 8.41; in experiment [2] it was 8.22. Besides, the values for the Ratio in experiment [3] and in experiment [4] were 0.99 and 0.96, respectively.
`COc1ccccc1OCCNC(C)=O`: the pKi in experiment [1] is 4.43; in experiment [2] it was 5.18. The Ratio in experiment [3] came to 0.23; in experiment [4] it was 0.22.
For `COc1cccc(SC[C@@H](C)NC(C)=O)c1`, in that order: 4.94, 4.91, 0.29 and 0.32.
Turning to `COc1ccc(OCCNC(C)=O)cc1`, the pKi in experiment [1] was 4.21; in experiment [2], 4.34. In addition, the results for the Ratio in experiment [3] and in experiment [4] were 0.26 and 0.44, respectively.
For `COc1cccc(S[C@H](C)CNC(=O)C2CC2)c1`, in that order: 6.92, 7.31, 0.49 and 0.59.
The like results for `COc1ccccc1OC(C)CNC(C)=O` (stereo unspecified) were, in that order, 4.98, 5.29, 0.19 and 0.45.
For `COc1cccc(SC(C)CNC(=O)C2CC2)c1` (stereo unspecified), in that order: 8.07, 8.01, 0.77 and 0.63.
With `CCCC(=O)NCC(C)Sc1cccc(OC)c1` (stereo unspecified), the pKi was 8.04 in experiment [1] and 8.30 in experiment [2]. The figures for the Ratio in experiment [3] and in experiment [4] were 1.02 and 0.99, respectively.
On to `COc1cccc(OCCNC(C)=O)c1`, for which the values for the pKi in experiment [1] and in experiment [2] were 7.39 and 7.17, respectively. In addition, the Ratio in experiment [3] turned out to be 0.81; in experiment [4], 0.8.
Regarding `CC(=O)NCCSc1ccccc1`, the pKi in experiment [1] was 5.42; in experiment [2] it was 6.47. For the same compound, the Ratio in experiment [3] is 0.22; in experiment [4] it was 0.5.
The like results for `COc1cccc(OC(C)CNC(=O)C2CC2)c1` (stereo unspecified) were, in that order, 9.03, 7.89, 0.91 and 1.02.
As for `COc1cccc(S[C@@H](C)CNC(C)=O)c1`, the pKi is 8.24 in experiment [1] and 8.15 in experiment [2].
For `CC(=O)NCCOc1ccccc1`, the pKi in experiment [1] was 4.94; in experiment [2], 5.26. Further, the Ratio in experiment [3] worked out at 0.31; in experiment [4], 0.5.
For `CCCC(=O)NC[C@@H](C)Oc1cccc(OC)c1`, in that order: 7.09, 7.17, 1.06 and 0.86.
The like results for `COc1cccc(O[C@H](C)CNC(=O)C2CC2)c1` were, in that order, 8.11, 7.68, 0.9 and 0.77.
The like results for `COc1cccc(S[C@@H](C)CNC(=O)C2CC2)c1` were, in that order, 8.27, 8.17, 0.8 and 0.8.
For `COc1cccc(O[C@@H](C)CNC(C)=O)c1`, the pKi in experiment [1] was 8.77; in experiment [2] it was 8.33. The Ratio in experiment [3] was determined as 1.01; in experiment [4] it was 1.09.
For `CCCC(=O)NC[C@H](C)Oc1cccc(OC)c1`, in that order: 8.51, 8.56, 1.01 and 1.07.
The like results for `CC(=O)NC(C)COc1ccccc1` (stereo unspecified) were, in that order, 4.92, 5.42, 0.04 and 0.15.
The like results for `COc1cccc(OCC(C)NC(C)=O)c1` (stereo unspecified) were, in that order, 6.45, 6.46, 0.63 and 0.71.
On to `CCCC(=O)NC[C@@H](C)Sc1cccc(OC)c1`, for which the values for the pKi in experiment [1] and in experiment [2] were 7.15 and 7.58, respectively. Moreover, the Ratio amounted to 0.59 in experiment [3] and 0.64 in experiment [4].
As to `COc1cccc(SCC(C)NC(C)=O)c1` (stereo unspecified), the pKi is 4.92 in experiment [1] and 5.88 in experiment [2].
On to `COc1ccc(OC(C)CNC(C)=O)cc1` (stereo unspecified), for which the pKi in experiment [1] was 4.37; in experiment [2], 4.90. Further, the Ratio in experiment [3] came to 0.15; in experiment [4], 0.13.
For `COc1cccc(SCCNC(C)=O)c1`, in that order: 7.26, 7.40, 0.85 and 0.81.
For `COc1ccc(SCCNC(C)=O)cc1`, in that order: 5.55, 5.62, 0.48 and 0.56.
Take `CC(=O)N[C@@H](C)COc1ccccc1`: the pKi in experiment [1] was 4.68; in experiment [2] it was 5.34. In addition, the Ratio in experiment [3] was determined as 0.05; in experiment [4], 0.26.
For `CC(=O)NCC(C)Oc1ccccc1` (stereo unspecified), in that order: 5.86, 5.94, 0.48 and 0.69.
For `COc1cccc(OC(C)CNC(C)=O)c1` (stereo unspecified), in that order: 8.44, 8.02, 1.01 and 1.01.
